Data from the supplement of paper PMC10733146.

Tests used:
Test in all cases: viability relative to DMSO control (fraction); higher = less drug effect (more viable cells)
Settings in all cases: 48 h
Duvelisib = compound: C[C@H](Nc1ncnc2nc[nH]c12)c1cc2cccc(Cl)c2c(=O)n1-c1ccccc1 [Duvelisib]
Summary of the method: (§1)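 In 384-well plates with compounds pre-plated at five concentrations (one well per concentration), primary mononuclear tumour cells were plated at 4 × 10^4 cells per well. The cells came from blood or bone marrow by Ficoll isolation or from processed lymph node, and were used fresh or cryopreserved. Culture ran for 48 h at 37 °C and 5% CO2 in RPMI-1640 containing penicillin/streptomycin, L-glutamine and human serum. Viability was read as CellTiter-Glo luminescence, normalised to the median of 16 inner DMSO wells.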

[1] = compound: C[C@H](NC(=O)CCC(F)(F)F)C(=O)N[C@@H]1C(=O)N(CCO)c2ncccc2-c2ccccc21
Summary of the method: as §1

Etoposide = compound: COc1cc([C@@H]2c3cc4c(cc3[C@@H](O[C@@H]3O[C@@H]5CO[C@@H](C)O[C@H]5[C@H](O)[C@H]3O)[C@H]3COC(=O)[C@H]23)OCO4)cc(OC)c1O [Etoposide]
Summary of the method: as §1

Palbociclib = compound: CC(=O)c1c(C)c2cnc(Nc3ccc(N4CCNCC4)cn3)nc2n(C2CCCC2)c1=O [Palbociclib]
Summary of the method: as §1

Vindesine = compound: CC[C@]1(O)C[C@@H]2CN(CCc3c([nH]c4ccccc34)[C@@](C(=O)OC)(c3cc4c(cc3OC)N(C)[C@H]3[C@@](O)(C(N)=O)[C@H](O)[C@]5(CC)C=CCN6CC[C@]43[C@@H]65)C2)C1 [Vindesine]
Summary of the method: as §1

[2] = compound: O=C(Nc1ccc2[nH]nc(-c3ccncc3)c2c1)[C@@H]1CCN(CC(=O)N2CCN(c3ccc(-c4ncccn4)cc3)CC2)C1
Summary of the method: as §1

[3] = compound: CCc1ccc(/C=C2/SC(=S)NC2=O)cc1
Summary of the method: as §1

Entospletinib = compound: c1cn2cc(-c3ccc4cn[nH]c4c3)nc(Nc3ccc(N4CCOCC4)cc3)c2n1 [Entospletinib]
Summary of the method: as §1

Roscovitine = compound: CC[C@H](CO)Nc1nc(NCc2ccccc2)c2ncn(C(C)C)c2n1 [Roscovitine]
Summary of the method: as §1

Everolimus = compound: CO[C@H]1C[C@@H]2CC[C@@H](C)[C@@](O)(O2)C(=O)C(=O)N2CCCC[C@H]2C(=O)O[C@H]([C@H](C)C[C@@H]2CC[C@@H](OCCO)[C@H](OC)C2)CC(=O)[C@H](C)/C=C(\C)[C@@H](O)[C@@H](OC)C(=O)[C@H](C)C[C@H](C)/C=C/C=C/C=C/1C [Everolimus]
Summary of the method: as §1

Selinexor = compound: O=C(/C=C\n1cnc(-c2cc(C(F)(F)F)cc(C(F)(F)F)c2)n1)NNc1cnccn1 [Selinexor]
Summary of the method: as §1

Navitoclax = compound: CC1(C)CCC(c2ccc(Cl)cc2)=C(CN2CCN(c3ccc(C(=O)NS(=O)(=O)c4ccc(N[C@H](CCN5CCOCC5)CSc5ccccc5)c(S(=O)(=O)C(F)(F)F)c4)cc3)CC2)C1 [Navitoclax]
Summary of the method: as §1

[4] = compound: C[C@H]1C[C@@H](n2c(Nc3ccc(OC(F)(F)F)cc3)nc3cc(CCC(=O)O)ccc32)CC(C)(C)C1
Summary of the method: as §1

Work on primary CLL patient cells (S031) yielded a viability (Duvelisib; 0.0016 µM) of 0.735, a viability (Duvelisib; 0.008 µM) of 0.681 and a viability (Duvelisib; 0.04 µM) of 0.561. The viability (Duvelisib; 0.2 µM) was 0.587, the viability (Duvelisib; 1 µM) was 0.475 and the viability ([1]; 0.016 µM) was 0.929. The viability ([1]; 0.08 µM) was 0.966, the viability ([1]; 0.4 µM) was 0.83 and the viability ([1]; 2 µM) was 0.918. The viability ([1]; 10 µM) was 0.852, the viability (Etoposide; 0.032 µM) was 1.03 and the viability (Etoposide; 0.16 µM) was 0.996. The viability (Etoposide; 0.8 µM) was 0.858, the viability (Etoposide; 4 µM) was 0.728 and the viability (Etoposide; 20 µM) was 0.329. It also gave a viability (Palbociclib; 0.024 µM) of 0.971, a viability (Palbociclib; 0.12 µM) of 0.805 and a viability (Palbociclib; 0.6 µM) of 0.662. For the same test system, the viability (Palbociclib; 3 µM) was 0.363, the viability (Palbociclib; 15 µM) was 0.317 and the viability (Vindesine; 0.016 µM) was 0.447. It also gave a viability (Vindesine; 0.08 µM) of 0.269, a viability (Vindesine; 0.4 µM) of 0.17 and a viability (Vindesine; 2 µM) of 0.151. It also gave a viability (Vindesine; 10 µM) of 0.0709, a viability ([2]; 0.008 µM) of 0.782 and a viability ([2]; 0.04 µM) of 0.686. For the same test system, the viability ([2]; 0.2 µM) was 0.469, the viability ([2]; 1 µM) was 0.307 and the viability ([2]; 5 µM) was 0.269. The viability ([3]; 0.024 µM) was 0.63, the viability ([3]; 0.12 µM) was 0.764 and the viability ([3]; 0.6 µM) was 0.871. The viability ([3]; 3 µM) was 0.828, the viability ([3]; 15 µM) was 0.821 and the viability (Entospletinib; 0.024 µM) was 1.09. For the same test system, the viability (Entospletinib; 0.12 µM) was 0.937, the viability (Entospletinib; 0.6 µM) was 1.04 and the viability (Entospletinib; 3 µM) was 0.958. For the same test system, the viability (Entospletinib; 15 µM) was 0.934, the viability (Roscovitine; 0.032 µM) was 0.81 and the viability (Roscovitine; 0.16 µM) was 0.872. The viability (Roscovitine; 0.8 µM) was 0.921, the viability (Roscovitine; 4 µM) was 0.734 and the viability (Roscovitine; 20 µM) was 0.455. The viability (Everolimus; 0.0032 µM) was 0.81, the viability (Everolimus; 0.016 µM) was 0.827 and the viability (Everolimus; 0.08 µM) was 0.808. The viability (Everolimus; 0.4 µM) was 0.879, the viability (Everolimus; 2 µM) was 0.894 and the viability (Selinexor; 0.008 µM) was 0.832. For the same test system, the viability (Selinexor; 0.04 µM) was 0.762, the viability (Selinexor; 0.2 µM) was 0.706 and the viability (Selinexor; 1 µM) was 0.561. The viability (Selinexor; 5 µM) was 0.387, the viability (Navitoclax; 0.0032 µM) was 1.03 and the viability (Navitoclax; 0.016 µM) was 0.762. It also gave a viability (Navitoclax; 0.08 µM) of 0.361, a viability (Navitoclax; 0.4 µM) of 0.109 and a viability (Navitoclax; 2 µM) of 0.0291. It also gave a viability ([4]; 0.024 µM) of 0.737, a viability ([4]; 0.12 µM) of 0.895 and a viability ([4]; 0.6 µM) of 0.868. For the same test system, the viability ([4]; 3 µM) was 0.774 and the viability ([4]; 15 µM) was 0.805.

Work on primary CLL patient cells (S043) yielded a viability (Duvelisib; 0.0016 µM) of 0.768, a viability (Duvelisib; 0.008 µM) of 0.759 and a viability (Duvelisib; 0.04 µM) of 0.704. For the same test system, the viability (Duvelisib; 0.2 µM) was 0.739, the viability (Duvelisib; 1 µM) was 0.677 and the viability ([1]; 0.016 µM) was 0.892. For the same test system, the viability ([1]; 0.08 µM) was 1.11, the viability ([1]; 0.4 µM) was 0.984 and the viability ([1]; 2 µM) was 1.1. The viability ([1]; 10 µM) was 0.896, the viability (Etoposide; 0.032 µM) was 1.12 and the viability (Etoposide; 0.16 µM) was 1.02. It also gave a viability (Etoposide; 0.8 µM) of 0.987, a viability (Etoposide; 4 µM) of 1.01 and a viability (Etoposide; 20 µM) of 0.813. For the same test system, the viability (Palbociclib; 0.024 µM) was 0.981, the viability (Palbociclib; 0.12 µM) was 0.959 and the viability (Palbociclib; 0.6 µM) was 0.876. For the same test system, the viability (Palbociclib; 3 µM) was 0.722, the viability (Palbociclib; 15 µM) was 0.421 and the viability (Vindesine; 0.016 µM) was 0.865. It also gave a viability (Vindesine; 0.08 µM) of 0.82, a viability (Vindesine; 0.4 µM) of 0.844 and a viability (Vindesine; 2 µM) of 0.666. For the same test system, the viability (Vindesine; 10 µM) was 0.605, the viability ([2]; 0.008 µM) was 0.757 and the viability ([2]; 0.04 µM) was 0.734. The viability ([2]; 0.2 µM) was 0.683, the viability ([2]; 1 µM) was 0.661 and the viability ([2]; 5 µM) was 0.629. The viability ([3]; 0.024 µM) was 0.742, the viability ([3]; 0.12 µM) was 0.789 and the viability ([3]; 0.6 µM) was 0.832. The viability ([3]; 3 µM) was 0.847, the viability ([3]; 15 µM) was 0.868 and the viability (Entospletinib; 0.024 µM) was 0.988. For the same test system, the viability (Entospletinib; 0.12 µM) was 0.936, the viability (Entospletinib; 0.6 µM) was 0.94 and the viability (Entospletinib; 3 µM) was 0.977. The viability (Entospletinib; 15 µM) was 0.947, the viability (Roscovitine; 0.032 µM) was 0.869 and the viability (Roscovitine; 0.16 µM) was 0.972. The viability (Roscovitine; 0.8 µM) was 0.952, the viability (Roscovitine; 4 µM) was 1.08 and the viability (Roscovitine; 20 µM) was 0.901. The viability (Everolimus; 0.0032 µM) was 0.823, the viability (Everolimus; 0.016 µM) was 0.851 and the viability (Everolimus; 0.08 µM) was 0.791. For the same test system, the viability (Everolimus; 0.4 µM) was 0.831, the viability (Everolimus; 2 µM) was 0.793 and the viability (Selinexor; 0.008 µM) was 0.788. It also gave a viability (Selinexor; 0.04 µM) of 0.746, a viability (Selinexor; 0.2 µM) of 0.713 and a viability (Selinexor; 1 µM) of 0.595. The viability (Selinexor; 5 µM) was 0.54, the viability (Navitoclax; 0.0032 µM) was 1.05 and the viability (Navitoclax; 0.016 µM) was 0.991. The viability (Navitoclax; 0.08 µM) was 0.989, the viability (Navitoclax; 0.4 µM) was 0.85 and the viability (Navitoclax; 2 µM) was 0.666. For the same test system, the viability ([4]; 0.024 µM) was 0.84, the viability ([4]; 0.12 µM) was 0.859 and the viability ([4]; 0.6 µM) was 0.895. For the same test system, the viability ([4]; 3 µM) was 1.08 and the viability ([4]; 15 µM) was 0.803.

primary DLBCL patient cells (S082) showed a viability (Duvelisib; 0.0016 µM) of 0.758, a viability (Duvelisib; 0.008 µM) of 0.689 and a viability (Duvelisib; 0.04 µM) of 0.679. The viability (Duvelisib; 0.2 µM) was 0.65, the viability (Duvelisib; 1 µM) was 0.619 and the viability ([1]; 0.016 µM) was 1.1. The viability ([1]; 0.08 µM) was 1.12, the viability ([1]; 0.4 µM) was 1.08 and the viability ([1]; 2 µM) was 1.19. The viability ([1]; 10 µM) was 1.16, the viability (Etoposide; 0.032 µM) was 1.08 and the viability (Etoposide; 0.16 µM) was 1.02. It also gave a viability (Etoposide; 0.8 µM) of 0.974, a viability (Etoposide; 4 µM) of 1 and a viability (Etoposide; 20 µM) of 0.664. The viability (Palbociclib; 0.024 µM) was 0.976, the viability (Palbociclib; 0.12 µM) was 0.92 and the viability (Palbociclib; 0.6 µM) was 0.847. It also gave a viability (Palbociclib; 3 µM) of 0.848, a viability (Palbociclib; 15 µM) of 0.712 and a viability (Vindesine; 0.016 µM) of 0.728. The viability (Vindesine; 0.08 µM) was 0.56, the viability (Vindesine; 0.4 µM) was 0.532 and the viability (Vindesine; 2 µM) was 0.421. The viability (Vindesine; 10 µM) was 0.366, the viability ([2]; 0.008 µM) was 0.875 and the viability ([2]; 0.04 µM) was 0.771. For the same test system, the viability ([2]; 0.2 µM) was 0.809, the viability ([2]; 1 µM) was 0.79 and the viability ([2]; 5 µM) was 0.743. It also gave a viability ([3]; 0.024 µM) of 0.764, a viability ([3]; 0.12 µM) of 0.807 and a viability ([3]; 0.6 µM) of 0.905. It also gave a viability ([3]; 3 µM) of 0.871, a viability ([3]; 15 µM) of 0.821 and a viability (Entospletinib; 0.024 µM) of 1.04. The viability (Entospletinib; 0.12 µM) was 1.03, the viability (Entospletinib; 0.6 µM) was 0.89 and the viability (Entospletinib; 3 µM) was 0.98. For the same test system, the viability (Entospletinib; 15 µM) was 0.926, the viability (Roscovitine; 0.032 µM) was 0.912 and the viability (Roscovitine; 0.16 µM) was 0.84. The viability (Roscovitine; 0.8 µM) was 0.935, the viability (Roscovitine; 4 µM) was 0.975 and the viability (Roscovitine; 20 µM) was 0.852. The viability (Everolimus; 0.0032 µM) was 0.892, the viability (Everolimus; 0.016 µM) was 0.816 and the viability (Everolimus; 0.08 µM) was 0.841. The viability (Everolimus; 0.4 µM) was 0.782, the viability (Everolimus; 2 µM) was 0.807 and the viability (Selinexor; 0.008 µM) was 0.931. For the same test system, the viability (Selinexor; 0.04 µM) was 0.971, the viability (Selinexor; 0.2 µM) was 1.03 and the viability (Selinexor; 1 µM) was 0.939. For the same test system, the viability (Selinexor; 5 µM) was 0.917, the viability (Navitoclax; 0.0032 µM) was 1.03 and the viability (Navitoclax; 0.016 µM) was 1. For the same test system, the viability (Navitoclax; 0.08 µM) was 0.772, the viability (Navitoclax; 0.4 µM) was 0.286 and the viability (Navitoclax; 2 µM) was 0.0483. For the same test system, the viability ([4]; 0.024 µM) was 0.849, the viability ([4]; 0.12 µM) was 1.04 and the viability ([4]; 0.6 µM) was 0.914. For the same test system, the viability ([4]; 3 µM) was 0.847 and the viability ([4]; 15 µM) was 0.943.
